How the values were obtained:
Type in all cases: cell-based, human
135TIL = test: Intracellular staining of IFN-γ after neoantigen peptide stimulation, 135TIL; conditions: intracellular cytokine staining
Procedure: (§1) T cells were stimulated by various in vitro methods, such as tumor cells, peptides or DNA encoding neoantigens, etc. and induced to release cytokines. Stimulated T cells were resuspended in 100 μl of Cytofix/Cytoperm solution (BD Biosciences) per well for microwell plates (or 250 μl for tubes) and incubated for 20 min at 4° C. for cell fixation. Fixed cells were permeabilized by washing twice in 1× Perm/Wash buffer (BD Biosciences). Then the fixed/permeabilized cells were thoroughly resuspended in 50 μl of 1× Perm/Wash buffer containing 1 μl of phycoerythrin (PE)-conjugated IFN-γ antibody (Thermo Fisher Scientific) and incubate at 4° C. for 30 min in the dark. After that the cells were washed twice with 1× Perm/Wash buffer and ready for flow cytometric analysis.

T-cell clones of 135TIL = test: IFN-γ ELISA with tumor-reactive T-cell clones of 135TIL; conditions: for percentage of CD8^+ tumor-reactive T-cell clones recognizing the neoantigen: 40 clones; for number of CD8^+ tumor-reactive T-cell clones recognizing the neoantigen: of 40 clones
Text: Thus, immunogenic antigens can be generated from various sources or mechanisms [such as alternative ORFs, noncoding regions (3′ and 5′ UTRs, introns, noncoding RNA)]. […] All other tumor-reactive CD4^+ T-cell clones and CD8^+ T-cell clones recognized the mutation-derived neoantigens. […] To identify these two antigens recognized by these two CD4^+ T-cell clones, an Ii-fusion cDNA library derived from 135 mel tumor cells was constructed using experimental procedures. The Ii-fusion cDNA library pools (approximately 100 cDNA clones per pool) were transfected into 293IMDR3/DP4 or 293IMDR4/DP4 cells, followed by co-culturing with CD4^+ T-cell clones (135-1C1 or 135-1E1). After 2×10^5 cDNA clones, positive cDNA library pools that stimulate two T-cell clones, respectively, were identified based on IFN-γ release by ELISA (FIG. 6B). The positive pools were then transformed into Stbl3™ Escherichia coli, and single bacteria colonies were picked for plasmid DNA isolation. The screening assays were repeated in the same APCs transfected with the single cDNA-containing plasmids, and identified three clones that were able to stimulate 135-1C1 T cells, and two clones that reacted with 135-1E1 T cells (FIG. 6C). […] The 135-1E1 T cell-reactive cDNA clones encoded the product translated from an alternative reading frame of CTAG2 (LAGE1b) (FIG. 6C and FIG. 7A). […] LAGE1 is a cancer-testis antigen, with over 80% amino acid sequence identical to NY-ESO-1 protein, which is the most immunogenic tumor antigen identified to date. To define the T cell epitopes, wee generated a series of deletions and truncations of 3′ UTR region of ADIPOR2 gene, and narrowed down T cell epitope to a 26 aa peptide-coding sequence that stimulate 135-1C1 T cell response (FIG. 7D). Using similar approach, T cell epitopes were narrowed down to a 69 aa peptide-coding sequence of the LAGE1b alternative ORF2 for 135-1E1 T-cell recognition (FIG. 7E).
Using systemic and multiple approaches, 8 cancer neoantigens were identified in 135 mel and 7 neoantigens in 136 mel. To understand the potential mechanisms that restrain the number of neoantigens that could induce T cell response, it was asked whether these neoantigens were equally recognized by T cells.
T-cell cloning and expansion were performed. Briefly, T-cell clones from 135TILs were generated by a limited dilution (0.3 cell/well) in 96-well plates. Allogeneic PBMCs from normal donors were irradiated (60 Gy) and then seeded as feeder cells (7×10^4/well) in TCM containing 35 ng/ml OKT3 (anti-hCD3 antibody) (R&D Systems) and 35 ng/ml anti-hCD28 antibody (R&D Systems). On day 1, recombinant IL-2 was added to the final concentration of 300 IU/ml. On day 5, half of the culture medium was replaced with fresh TCM containing recombinant IL-2, and then the medium was changed every other day or when the medium color turned yellow. On day 14, T-cell clones were harvested, counted, tested for tumor reactivity. Tumor reactive T-cell clones were further expanded.
96-well tissue culture plates were coated with phosphate-buffered saline (PBS, GenDEPOT) containing 50 μg/ml poly-L-lysine (Millipore Sigma) at 37° C. 10 min later, the plates were rinsed twice with PBS. Tumor cells or 293-APCs were seeded at 5×10^4/well in the 96-well plate and cultured at 37° C., 5% CO2 for at least 4 h. For plasmid transfection, 250 ng of plasmid DNA were transfected into 293-APCs per well with 0.5 μl of Lipofectamine 2000 (Thermo Fisher Scientific) according to the manufacturer's instructions and incubated at 37° C., in 5% CO2 overnight. For peptide presentation, synthesized peptides (GeneScript) were added to each well at different final concentrations from 10^2 to 10^−4 μM and incubated at 37° C., 5% CO2. The cells transfected with plasmids or pulsed with peptides were washed with TCM twice, and then cocultured with T cells (1×10^5/well). After overnight culture, 50 μl of supernatant was collected for measuring cytokine release with an ELISA assay. […]

[1] = system: CD4^+ T cells isolated from 136TIL; test: T-cell reactivity assay (IFN-γ ELISA): TMGs/minigenes in 293IMDR1/DP4 and 293IMDR11/DP4 cells; conditions: 293IMDR1/DP4 cells
Text: Using several different approaches (293-engineered APCs and B cells, as well as different libraries) and tumor-reactive T cells (TIL lines and clones), 6 MHC-II antigens (4 mutation-derived neoantigens and 2 derived from alternative ORF and 3′ UTR region) were identified and 3 MHC-I neoantigens in 135 mel tumor cells. It appears that the number of neoantigens recognized by T cells is rather limited, even though there are 232 somatic mutations (Table 3). To extend the findings, exome sequencing of genomic DNAs isolated from the second patient tumor (136 mel) and 136TIL cells (as a control) was performed and identified 348 somatic mutations that were unique to 136 tumor cells (FIG. 8A) (Table 4). A library was designed and constructed containing 35 TMGs (10 mutations in each TMG) in pTSX targeting expression vector based on somatic mutations. […] By contrast, no appreciable T cell activity was observed against the corresponding WT counterparts (FIG. 8C). Because ANKIB1 can be presented by both 293IMDR1/DP4 and 293IMDR11/DP4 cells (FIG. 8B), it is likely that ANKIB1 is presented by HLA-DP4 molecules for T cell recognition.
96-well tissue culture plates were coated with phosphate-buffered saline (PBS, GenDEPOT) containing 50 μg/ml poly-L-lysine (Millipore Sigma) at 37° C. 10 min later, the plates were rinsed twice with PBS. Tumor cells or 293-APCs were seeded at 5×10^4/well in the 96-well plate and cultured at 37° C., 5% CO2 for at least 4 h. For plasmid transfection, 250 ng of plasmid DNA were transfected into 293-APCs per well with 0.5 μl of Lipofectamine 2000 (Thermo Fisher Scientific) according to the manufacturer's instructions and incubated at 37° C., in 5% CO2 overnight. For peptide presentation, synthesized peptides (GeneScript) were added to each well at different final concentrations from 10^2 to 10^−4 μM and incubated at 37° C., 5% CO2. The cells transfected with plasmids or pulsed with peptides were washed with TCM twice, and then cocultured with T cells (1×10^5/well). After overnight culture, 50 μl of supernatant was collected for measuring cytokine release with an ELISA assay.
96-well microplate (Greiner Bio-one) was coated with 50 μl of PBS containing anti-human IFN-γ (Thermo Fisher Scientific, primary antibody, 1 μg/ml) per well and incubated at 4° C. overnight. […] The plate was read at OD450 nm. The concentration of IFN-γ was calculated by standard reading.
The screening of antigen-specific T cells against TMGs were performed as described in T-cell reactivity assay above. […] The transfected cells were cocultured with tumor-reactive T cells overnight and the IFN-γ release in the supernatant in each well was determined by ELISA on the second day.

136TIL = test: Intracellular staining of IFN-γ after neoantigen peptide stimulation, 136TIL; conditions: for neoantigen-specific CD4^+ T cells in the total T cell population: fibroblasts loaded with peptide
Text: Among them, MAPK9 and ANKIB1 neoantigen-specific CD4^+ T cells accounted for 14.3% and 5.2% in the total T cell population, which accounted for 58% and 21% in the total tumor-reactive CD4^+ T cell population, respectively (FIG. 11B). By contrast, other neoantigen-specific CD4^+ T cells accounted for only a small percentage of T cells in the total T cell population (FIG. 11A). Since HHAT is only one MHC-I neoantigen, it was shown that HHAT neoantigen-specific CD8^+ T cells accounted for 10.6% in the total T cell population when stimulation with HHAT peptide (FIG. 11A), which accounted for 73% in the total tumor-reactive CD8^+ T cell population (FIG. 11B).
as §1

[2] = system: CD4^+136-C13 and 136-C22 T cell clones; test: TMG/minigene screening with T cell clones of 136TIL; conditions: 293IMDR1/DP4 cells
Procedure: As shown in 135 mel, ADIPOR2 and LAGE1b were identified as tumor antigens recognized by T cell clones that were in relatively low abundance in the bulk TIL population. Thus, T cell clones generated from 136TILs were tested for their ability to recognize the newly identified as well as unknown neoantigens. 293IMDR1/DP4 and 293IMDR11/DP4 cells were transfected with 35 TMGs, respectively, followed by co-culturing with T cells clones for overnight.

## GSGEKVAGRVIVKVCEVTRVKAVRI [TXNIP, MHC-I neoantigen of patient #135]
135TIL
  CD8^+ T cells recognizing the neoantigen in the total T cell population: 2.95%
T-cell clones of 135TIL
  percentage of CD8^+ tumor-reactive T-cell clones recognizing the neoantigen: 20%
  number of CD8^+ tumor-reactive T-cell clones recognizing the neoantigen: 8

## KDAARPAYWVPDYEILHCHNCRKEF [ZFYVE1, MHC-II neoantigen of patient #136]
[1]
  T cell recognition, IFN-γ release by CD4^+ 136TIL: capable of stimulating CD4^+ T cells for IFN-γ release

## LLKTRRILKCSYLYGFFLEPKSTKK [ANKIB1, MHC-II neoantigen of patient #136]
136TIL
  share in the total tumor-reactive CD4^+ T cell population: 21%
  neoantigen-specific CD4^+ T cells in the total T cell population: 5.2%
[1]
  T cell recognition, IFN-γ release by CD4^+ 136TIL: capable of stimulating CD4^+ T cells for IFN-γ release

## LLLAGYLAQQYLLLPTPKVIGIDLG [HSPA13, MHC-II neoantigen of patient #136 recognized by clone C22]
[2]
  recognition by T cell clones 136-C13 (TMG13) and 136-C22 (TMG8): MHC-II neoantigens

## PFYLGHTIKSGDFEYVGMEGGIVLS [C1GALT1C1, MHC-II neoantigen of patient #136 recognized by clone C13]
[2]
  recognition by T cell clones 136-C13 (TMG13) and 136-C22 (TMG8): MHC-II neoantigens

## RLKASLDRPFTNSESAFYSIVGLSS [RPN2, MHC-I neoantigen of patient #135]
135TIL
  CD8^+ T cells recognizing the neoantigen in the total T cell population: 1.54%
T-cell clones of 135TIL
  percentage of CD8^+ tumor-reactive T-cell clones recognizing the neoantigen: 12.5%
  number of CD8^+ tumor-reactive T-cell clones recognizing the neoantigen: 5

## SMPLWDFQGSTMRTSQYVRLTPDER [LMAN2, MHC-II neoantigen of patient #136]
[1]
  T cell recognition, IFN-γ release by CD4^+ 136TIL: capable of stimulating CD4^+ T cells for IFN-γ release

## YPGIKFEELFPDCIFPSESERDKIK [MAPK9, MHC-II neoantigen of patient #136]
136TIL
  share in the total tumor-reactive CD4^+ T cell population: 58%
  neoantigen-specific CD4^+ T cells in the total T cell population: 14.3%
[1]
  T cell recognition, IFN-γ release by CD4^+ 136TIL: capable of stimulating CD4^+ T cells for IFN-γ release

Reference: patent US12565680B2, “Cancer neoantigens and their utilities in cancer vaccines and TCR-based cancer immunotherapy” (THE METHODIST HOSPITAL SYSTEM, priority 2018, dated 2026)
